Test results reported in ChEMBL document CHEMBL3351623, “Pim kinase inhibitors for the treatment of cancer and possibly more” (ACS Med Chem Lett, 2014).

Tests used:
Assay type in all cases: functional, cell-based
BaF3 [1] = assay: Antiproliferative activity against PIM1-dependent mouse BAF3 cells
[2] = Antiproliferative activity against human MM1S cells; conditions: MM1.S
BaF3 [3] = assay: Antiproliferative activity against IL3-dependent mouse BAF3 cells

IC50 (BaF3 [1]) [nM] | IC50 (BaF3 [3]) [nM] | Structure (SMILES) | EC50 [2] [nM]
19.2 |  | Cn1ncc(NC(=O)c2nc(-c3c(F)cccc3F)sc2N)c1[C@]12CC[C@H](O1)[C@@H](N)CC2 | 
37.2 | 12200 | Cn1ncc(NC(=O)c2csc(-c3c(F)cc([C@H]4CCCO4)cc3F)n2)c1[C@@H]1CC[C@@H](N)[C@H](F)CO1 (single isomer, unassigned) | 1700
96.8 | > 25000 | C[C@H]1O[C@@H](c2c(NC(=O)c3csc(-c4c(F)cccc4F)n3)cnn2C)C[C@@H](N)[C@]1(C)O (single isomer, unassigned) | 6900
